Assay [1] relates to NRF2. Description: NRF2/ARE Luciferase Reporter Assay (HEK293 stable cell line). As to conditions: NRF2-dependent luciferase activity, cells treated for 6 hours; read-out: EC50 for stimulating NRF2. Type of assay: cell-based, human. The protocol: NRF2/ARE Luciferase Reporter Assay NRF2 activity was monitored with a reporter cell line in which changes in NRF2 activity are coupled to the expression of firefly luciferase (NRF2/ARE Luciferase Reporter HEK293 Stable Cell Line). Luciferase activity was quantified with the Luciferase Assay System as per the manufacturer's instructions. Briefly, cells were plated at 125,000 cells/well in a 24-well plate. The following day, cells were treated with either vehicle or varying doses of sulforaphane, exemestane, or JQ-1 for 6 hours. Cells were then lysed in passive lysis buffer (Promega E1941) supplemented with protease inhibitors (Sigma). Lysates were then cleared at 16,000 g for 15 minutes at 4° C. 15 μL of each lysate was mixed with 5 μL of luciferase assay substrate (Promega). Total light was measured using a luminometer with a 10 second integration time with a delay of 2 seconds. Luciferase measurements were normalized to total protein and reported as normalized to the vehicle condition.

In assay [2] the target is T1, TRPA1 (Homo sapiens, UniProt O75762).
T1 construct: expressed in transfected cells; host or cells: HEK293
T1 sequence (O75762 whole entry): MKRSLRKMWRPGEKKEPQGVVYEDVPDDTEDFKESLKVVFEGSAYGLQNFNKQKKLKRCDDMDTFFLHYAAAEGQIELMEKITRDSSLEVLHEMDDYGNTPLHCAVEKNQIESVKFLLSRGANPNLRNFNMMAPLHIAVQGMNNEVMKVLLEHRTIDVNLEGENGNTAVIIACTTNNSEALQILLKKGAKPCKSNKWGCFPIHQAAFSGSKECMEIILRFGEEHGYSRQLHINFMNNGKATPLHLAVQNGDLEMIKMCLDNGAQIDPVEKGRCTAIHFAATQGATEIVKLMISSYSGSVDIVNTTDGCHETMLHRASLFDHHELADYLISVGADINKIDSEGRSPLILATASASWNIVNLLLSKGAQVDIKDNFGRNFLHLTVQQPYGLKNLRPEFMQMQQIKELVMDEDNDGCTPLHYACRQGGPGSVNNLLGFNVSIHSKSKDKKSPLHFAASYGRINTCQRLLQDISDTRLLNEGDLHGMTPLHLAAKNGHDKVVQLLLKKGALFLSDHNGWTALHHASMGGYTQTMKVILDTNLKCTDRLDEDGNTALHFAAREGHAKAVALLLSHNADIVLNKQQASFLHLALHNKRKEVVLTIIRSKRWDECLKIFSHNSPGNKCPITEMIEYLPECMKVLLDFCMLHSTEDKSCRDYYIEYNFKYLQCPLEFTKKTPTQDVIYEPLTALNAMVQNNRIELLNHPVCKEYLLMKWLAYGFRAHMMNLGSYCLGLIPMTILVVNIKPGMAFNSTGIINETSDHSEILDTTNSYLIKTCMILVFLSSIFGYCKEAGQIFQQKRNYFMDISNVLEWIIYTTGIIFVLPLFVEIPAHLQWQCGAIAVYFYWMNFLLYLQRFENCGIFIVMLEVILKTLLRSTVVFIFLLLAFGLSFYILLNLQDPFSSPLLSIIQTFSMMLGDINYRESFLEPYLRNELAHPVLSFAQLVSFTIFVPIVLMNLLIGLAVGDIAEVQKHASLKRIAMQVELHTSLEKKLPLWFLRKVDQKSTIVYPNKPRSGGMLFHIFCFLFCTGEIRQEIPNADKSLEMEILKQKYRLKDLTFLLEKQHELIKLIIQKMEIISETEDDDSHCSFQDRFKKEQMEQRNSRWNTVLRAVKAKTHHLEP
Description: Calcium imaging of HEK293 cells transiently expressing WT TRPA1. Type of assay: cell-based. The settings on record: for calcium response of cells transfected with the vector backbone alone: 100 μM iodoacetamide, control vector; for calcium response of cells transfected with the vector backbone alone / calcium response of cells expressing WT TRPA1: 1 mM H2O2 or 100 μM 4-HNE; for EC50: concentration-Ca2+ response, HEK-293 cells transfected with WT TRPA1. As for the experimental part:
(§1) Calcium Imaging and Analysis Calcium imaging and analysis was performed as previously described (See Meixiong, J. et al. Elife 8, (2019)). Briefly, cells were imaged in calcium imaging buffer (CIB; 10 mM HEPES, 1.2 mM NaHCO3, 130 mM NaCl, 3 mM KCl, 2.5 mM CaCl2, 0.6 mM MgCl2, 20 mM glucose, and 20 mM sucrose at pH 7.4 and 290-300 mOsm). To monitor changes in intracellular [Ca^2+]([Ca^2+]i), cells were loaded with either 1 μM Fura 2-AM (HEK293 cells) or 1 μM Fluo 4-AM (trigeminal neurons) for 30 min in the dark at 37° C. in CIB just prior to imaging. With Fura 2-AM, emission at 510 nm was monitored following excitation at both 340 nm and 380 nm. With Fluo 4-AM, emission at 520 nm was monitored following excitation at 488 nm. Cells were identified as positively responding if [Ca^2+]i rose by 15% compared to baseline. Damaged, detached, high-baseline, and motion-activated cells were excluded from analysis.
(§2) HEK293 cells were plated on poly-D-lysine-coated coverslips and transiently transfected with the vector backbone or constructs encoding WT or mutant TRPA1. Unless otherwise noted, cells were imaged for 30 s to establish a baseline before compounds were added. Vehicle was first applied for 30 s, after which 100 μM iodoacetamide, 1 mM H2O2, or 100 μM 4-HNE was applied. CSF from cases and controls was diluted into calcium imaging buffer 1:50 prior to each trial. 50 μM of the non-selective TRP channel inhibitor ruthenium red was applied at the end of every imaging trial.

The target of assay [3] is T2, mutant TRPA1 (Cys621, Cys641, Cys665, Lys721) (Homo sapiens, UniProt O75762, C621S/C641S/C665S).
T2 construct: expressed in transfected cells; host or cells: HEK293
T2 sequence (O75762 whole entry C621S/C641S/C665S): as the sequence (O75762 whole entry) above, with C621S, C641S, C665S counted along it
Description: Calcium imaging of HEK293 cells transiently expressing mutant TRPA1. The settings on record: 100 μM iodoacetamide, 1 mM H2O2 or 100 μM 4-HNE. Type of assay: cell-based. As for the experimental part:
as §1, §2
(§3) ROS directly activated TRPA1 by covalently bonding or modifying a network of cysteine and lysine residues within the channel. Extensive work by several groups has pinpointed a collection of key residues in TRPA1, including Cys421, Cys621, Cys641, Cys665, and Lys721. To test which residues among these sense H2O2 and 4-HNE, each was mutated individually and in various combinations (FIGS. 7A and 7B). Triply mutating cysteines Cys621, Cys641, Cys665 to serine rendered TRPA1 insensitive to both iodoacetamide and H2O2 (FIGS. 2D-2E). […] These four residues position TRPA1 as both a key sensor and transducer of oxidative stress.

In assay [4] the test system is mutant TRPA1 (Cys621, Cys641, Cys665, Lys721). The assay is described as above. The class given is cell-based. As to conditions: 100 μM 4-HNE. As for the experimental part:
as §1, §2, §3

Assay [5] concerns constrictive mouse model of trigeminal neuralgia. Description: Mechanical allodynia (Von Frey filament) after constriction of the maxillary nerve. Type of assay: in vivo. The settings on record: WT mice, vs vehicle. As for the experimental part:
(§4) Constriction of the Maxillary Nerve Constriction of the maxillary division of trigeminal nerve was performed as previously described (See Benedetti, A., et al., Biochimica Et Biophysica Acta Bba—Lipids Lipid Metabolism 620, 281-296 (1980) and Vos, B., et al J Neurosci 14, 2708-2723 (1994)). The procedure was performed under direct visualization and control with a surgical microscope. Mice were first anesthetized with ketamine (100 mg/kg, i.p.) and xylazine (12.5 mg/kg, i.p.) and monitored by pinching the skin between the toes with forceps and monitoring for withdrawal. Mice were restrained with adhesive tape to a sterilized polystyrene board. Upon sufficient anesthesia, the scalp was shaved and an anterior to posterior skin incision was made at the midline to expose the nasal and maxillary bones. The maxillary nerve was exposed and carefully dissected free from the surrounding connective tissue. The distal end of the maxillary nerve was then loosely constricted using 8-0 silk sutures as a ligature. The sutures were tied using a slip knot followed by a normal knot, after which any remaining suture was cut free. The incision was then closed with a 4-0 silk suture. In the sham procedure, the left maxillary nerve was exposed but not constricted. Mice were monitored and rehydrated until fully recovered from anesthesia.
(§5) Pharmacologic Treatments Mice were dosed with either sulforaphane (10 mg/kg, i.p.), exemestane (10 mg/kg, i.p.), letrozole (10 mg/kg, i.p.), (+)-JQ-1 (40 mg/kg, i.p.), (−)-JQ-1 (40 mg/kg, i.p.), or ascorbate (100 mg/kg, i.p.) as indicated below. Mice were first dosed daily for two days before surgery and again daily just after behavior testing. For local exemestane treatment, exemestane (5 μL, 25 μg total) was applied directly to the maxillary nerve. Mice received a single dose during surgery. Mice were dosed with AM-0902 (30 mg/kg, p.o.). Mice were treated with AM-0902 were dosed 30 min prior to behavior testing. Mice were dosed with tamoxifen (75 mg/kg, i.p.). Mice were dosed once every 24 hrs over 5 consecutive days. Behavioral and molecular tests were only performed 7 or more days after the final tamoxifen injection.
Mechanical Allodynia Mechanical allodynia was assessed in C57BL/6J, TRPA1^+/+, TRPA1^−/−, Keap1(f/f), and Keap1(f/f/CMV-CreER mice using a Von Frey filament as previously outlined (See Benedetti, A., et al., Biochimica Et Biophysica Acta Bba—Lipids Lipid Metabolism 620, 281-296 (1980) and Vos, B., et al J Neurosci 14, 2708-2723 (1994)). Animals were placed individually in transparent plastic boxes and allowed to acclimate to the environment for at least 30 min before testing. After habituation, a 0.04 g force Von Frey filament was used to stimulate the territory innervated by the maxillary nerve, including the vibrissal skin pad. Each mouse's response to the filament was scored from 0-4 on the scale below. Each mouse was scored ten times per day. Changes in mechanical allodynia were considered relative to sham- or vehicle-treated animal controls. Behavior was assessed concomitantly or in a blocked manner with consideration for both genotype and treatment. • 0—no response • 1—non-defensive response to the stimulus (e.g., mouse non-defensively explores filament) • 2—withdrawal response (e.g., mouse turns head away from filament) • 3—escape/attack response (e.g., mouse moves body away from filament and assumes crouching position against the box wall; actively attacks filament by biting and/or grabbing) • 4—asymmetric face grooming (e.g., mouse wipes stimulated facial area in uninterrupted series of at least three face-wash strokes)

For assay [6] the test system is unchanged. Nature of the assay: Cold allodynia (ice-cold acetone) after constriction of the maxillary nerve. Type of assay: in vivo. The settings on record: WT mice, vs vehicle. As for the experimental part: as §4, §5
Cold Allodynia Cold allodynia was assessed in C57BL/6J, TRPA1^+/+, TRPA1^−/−, Keap1(f/f), and Keap1(f/f)/CMV-CreER mice using ice-cold acetone as previously outlined (See Yoon, C., et al., Pain 59, 369-376 (1994)). Animals were placed individually in transparent plastic boxes and allowed to acclimatize to the environment for at least 30 min before testing. After habituation, 20 μl of cold acetone was applied to the ligated vibrissal pad skin surface. Cold allodynia was measured as the average time spent wiping the region in a 60 s period, with a maximum of 5 seconds between bouts of wiping. Allodynia was measured three times with 10 min between intervals. Changes in cold allodynia were considered relative to sham- or vehicle-treated animal controls. Behavior was assessed concomitantly or in a blocked manner with consideration for both genotype and treatment.

Assay [7] has the same test system. Nature of the assay: Mechanical allodynia (Von Frey filament) after constriction of the maxillary nerve. Type of assay: in vivo. As to conditions: NRF2−/− mice; AM-0902 30 mg/kg, p.o., 30 min prior to behavior testing.
Assay [8] shares this test system. Nature of the assay: Cold allodynia (ice-cold acetone) after constriction of the maxillary nerve. The class given is in vivo. The settings on record: NRF2−/− mice; AM-0902 30 mg/kg, p.o., 30 min prior to behavior testing.
Where [9] appears, read: AM-0902 30 mg/kg, p.o., 30 min prior to behavior testing.
Where [10] appears, read: i.p. daily for two days before surgery and daily after behavior testing, sulforaphane, exemestane, letrozole 10 mg/kg, JQ-1 40 mg/kg, ascorbate 100 mg/kg.

Structures are written as SMILES.

For orientation: EC50 means the concentration at which the effect is half-maximal. Consider `CCCCCC(O)/C=C/C=O` (stereo not shown) [4-HNE, 4-hydroxynonenal], for which the EC50 in assay [1] came to 12 µM. For the same compound, in assay [2], the “calcium response of cells transfected with the vector backbone alone” value (from here on “calcium response of cells transfected”) is on record as “Neither iodoacetamide, H2O2, nor 4-HNE elicited a calcium response”; the “calcium response of cells expressing WT TRPA1” value is “activated cells expressing TRPA1”; the EC50 is 48 µM. The “sensitivity of triple mutant TRPA1 (Cys621, Cys641, Cys665 to serine)” value (“sensitivity of triple mutant TRPA1” below) in assay [3] is “still activated”. Further, in assay [4], the “sensitivity of triple cysteine mutant TRPA1 after also mutating Lys721” value is listed as “no longer sensitive”.

On to `Cn1cnc2ncn(Cc3nc(CCc4ccc(Cl)cc4)no3)c(=O)c21` [AM-0902, 1-({3-(2-(4-chlorophenyl)ethyl]-1,2,4-oxadiazol-5-yl}methyl)-7-methylpurin-6-one], for which the mechanical allodynia result in assay [5] (setting [9]) is “reduced”; in assay [7], “lowered”. Further, the cold allodynia entry is listed as “reduced” in assay [6] (setting [9]) and “lowered” in assay [8].

Regarding `OO` [H2O2], the EC50 in assay [1] came to 14 µM. Moreover, in assay [2], the “calcium response of cells transfected” value is recorded as “Neither iodoacetamide, H2O2, nor 4-HNE elicited a calcium response”; the “calcium response of cells expressing WT TRPA1” value is listed as “activated cells expressing TRPA1”; the concentration for a half-maximal effect (EC50) worked out at 133 µM. For the same compound, the “sensitivity of triple mutant TRPA1” value in assay [3] is recorded as “insensitive”.

With `NC(=O)CI` [iodoacetamide], in assay [2], the “calcium response of cells transfected” value is reported as “Neither iodoacetamide, H2O2, nor 4-HNE elicited a calcium response”. The “sensitivity of triple mutant TRPA1” value in assay [3] is on record as “insensitive”.

As for `N#Cc1ccc(C(c2ccc(C#N)cc2)n2cncn2)cc1` [letrozole], the “mechanical allodynia (sensitivity to crude touch)” value in assay [5] (setting [10]) is recorded as “neither letrozole nor (−)-JQ-1 did”. Moreover, the “cold allodynia (ice-cold acetone)” value in assay [6] (setting [10]) was “neither letrozole nor (−)-JQ-1 did”.

Values taken from patent publication US20250064846A1, “TREATMENT AND PREVENTION OF TRIGEMINAL NEURALGIA” (THE JOHNS HOPKINS UNIVERSITY, priority 2022, published 2025).
